Experimental data taken from patent publication US20110077230A1, “COPPER ORGANOCOMPLEXES, USE THEREOF AS ANTITUMOR MEANS AND FOR PROTECTING HEALTHY TISSUE FROM IONIZING RADIATION” (CHARITE - UNIVERSITATSMEDIZIN BERLIN, priority 2008, published 2011).

Assays:
[1] = test system: primary lymphoblasts from ALL patients; experiment: Ex vivo induction of apoptosis in primary lymphoblasts; format: cell-based, human; settings: concentration in LC50 range of NALM-6, 60 hours, cells resistant to daunorubicin and doxorubicin
Method: Thereafter, the cells were incubated for 60 hours at 37° C. and 5% CO2, subsequently stained with propidium iodide and quantified using flow cytometry in an FACS.

[2] = test system: lymphoma cells (BJAB); experiment: Combined administration of complex A and cytarabine, DNA fragmentation; format: cell-based, human; settings: 48 hours
Method: Incubation was performed for 48 hours at 37° C. and 5% CO2, carrying along zero and solvent controls. DNA fragmentation is determined by flow cytometry after staining the cells with propidium iodide.

[3] = test system: melanoma B 16; experiment: B 16 melanoma in mice, peroral administration versus intraabdominal injection; format: in vivo, mice of the line C 57Bl; parameters: Average weight of tumor: unit not given here; settings: for Average weight of tumor: day 16
Method: The melanoma B 16 was implanted in 23 mice of the line C 57Bl by subcutaneous injection into the right thigh. The animals were divided into five groups of four to five mice each.
Group I received complex A at a dosage of 7 mg/kg as a suspension in olive oil which was administered perorally 3, 5, 7 and 9 days after transplantation of the tumor.
Group II was treated as group I, but using a dosage of 10 mg/kg administered on the 3rd, 4th, 5th, 6th, 7th, 8th, 9th and 10th day.
Group III was treated as group II, but using a dosage of 15 mg/kg.
Group IV received complex A 3, 5, 7 and 9 days after transplantation of the tumor at a dosage of 7 mg/kg, dissolved in DMSO, to which end the solution was administered by injection in the form of a 4% suspension in physiological saline.
Group V received no treatment.
On day 16 of the experiment the animals were sacrificed and examined.

[4] = test system: colon adenocarcinoma tumor (AKATOL); experiment: Transplanted colon adenocarcinoma (AKATOL), peroral administration; format: in vivo, mice of the BALB line; settings: for Average weight of tumor: days 3 to 10, day 21
Method: Tumor cells were transplanted in mice of the BALB line by injection into the thighs. 3 of 4 groups received the respective preparation on the peroral route 3, 4, 5, 6, 7, 8, 9 and 10 days after tumor implantation.
Group I: 10 mg/kg complex A suspended in olive oil.
Group II: 5 mg/kg complex A suspended in olive oil.
Group III: 10 mg/kg sarcolysine suspended in olive oil.
On day 21 of the experiment the animals were sacrificed and examined.

[5] = test system: EAC cells; experiment: Cytosolic calcium (chlortetracycline fluorescence) in EAC cells; format: cell-based, mice; settings: depending on the dose
Method: (§1) The Ehrlich ascites carcinoma (EAC) was obtained from white male mice of the strain MNR1 and the thymocytes from the thymus of rats of the Wistar line. Vitality of the cells was tested by vital staining using trypan blue and experiments and determined to be no less than 95% in all experiments. The NADH state in the EAC cells was assessed with reference to their fluorescence intensity. Measurement of the intracellular calcium concentration was performed according to the standard methodology of fluorescence using chlortetracycline. The membrane potential was measured using the fluorescent dye No. 1104. NADH is a source of electrons in the oxidative phosphorylation process. […] These effects are directed to inhibiting the NAD-dependent dehydrogenase. As a result, the respiratory chain in the tumor cells is inhibited.
The concentration of intracellular calcium is a trigger for a number of intracellular processes (FIG. 17c, 17d).

[6] = test system: thymocytes; experiment: Membrane potential of thymocytes (fluorescent dye); format: cell-based, rats of the Wistar line
Method: as §1
Moreover, the complexes A and C have an influence on the membrane potential of thymocytes.

[7] = test system: neutrophils; experiment: Antioxidant properties: ROS formation in neutrophils; format: cell-based, male mice of the NMRI line; settings: triggered by PMA and fMLF, depending on the dosage
Description: The complexes A and C show a pronounced effect as antioxidant in an environment having an excess of reactive oxygen species (ROS). Thus, ROS formation in neutrophils obtained from male mice of the NMRI line was triggered by two activators: phorbol 12-myristate 13-acetate (PMA) and N-formyl-methionyl-leucylphenylalanine (fMLF).

[8] = test system: human mammary gland tumor cells; experiment: In vitro effect on human mammary gland tumor cells (trypan blue, photography); format: cell-based
Method: From a patient with mammary carcinoma already showing signs of decay, postoperational material was collected and the tumor cells were separated therefrom. A suspension of these tumor cells was added with trypan blue dye and complex A. During the course of the test, three cells situated closely to each other (A, B and C) were documented by photography (FIGS. 22a, 22b and 22c). After incubating for 18 minutes, wrinkling of the membrane of cell A and invagination of the membrane of cell B can be recognized. After 28 minutes of incubation, cell fragments become stained with trypan blue, a sign that apoptosis has begun. After 43 minutes of incubation, membrane components and the contents thereof detach from the cells.

[9] = test system: human mammary gland tumor cells, T4N2M0 stage; experiment: In vitro effect on human mammary gland tumor cells, Experiment 2; format: cell-based
Method: Tumor cells were collected from the surgical material of female patients suffering from mammary carcinoma at two different stages. The tumor tissue was added with sterile 0.25% trypsin solution and centrifuged repeatedly in RPMI-1640 nutrient medium for 15 minutes at 1500 revolutions per minute. The amount of resulting cells was counted and the suspension of tumor cells divided into five equal groups. The RPMI-1640 nutrient medium was added with 12% fetal calf serum. The cells were incubated for 48 h at 37° C. in a 5% CO2 stream.
The preparations were dissolved in 4% DMSO and physiological saline and acidified with HCl.
Two experiments were performed using cancer cells derived from tumors of different stages. To differentiate the various stages of cancer, the TNM classification is used internationally which takes into account the tumor size (T), lymph node affection (N=nodal status) and the extent of metastasis (M).
(T3: large tumor spreading into the tissue surrounding the breast; N2: metastases up to 9 axillary lymph nodes, M0: no distant metastases). A suspension including 40 million cells was added with 50 μl of each preparation.
The 5 groups with cancer cells received the following:
After subjecting the preparations to flow incubation for 60 minutes, trypan blue stained cells were produced, and dead cells and apoptosis could be determined; dead cells and apoptotic cells were determined in specific units of time and morphological findings.

[10] = Solubility and stability of the complexes

Copper-sarcolysine hydrochloride complex [complex A]
induction of apoptosis in lymphoblasts [1]: about 26%
synergy effect with cytarabine, induction of apoptosis [2]: 129%
% inhibition, mass percent ([3]; Group I: peroral 7 mg/kg): 62.0%
% inhibition, volume percent ([3]; Group I: peroral 7 mg/kg): 84.1%
Average volume of tumor ([3]; Group I: peroral 7 mg/kg): 1.39 cm^3
Average weight of tumor ([3]; Group I: peroral 7 mg/kg in olive oil, days 3, 5, 7, 9): 0.96 ± 0.14
% inhibition, mass percent ([3]; Group II: peroral 10 mg/kg): 73.10%
% inhibition, volume percent ([3]; Group II: peroral 10 mg/kg): 76.0%
Average volume of tumor ([3]; Group II: peroral 10 mg/kg): 1.55 cm^3
Average weight of tumor ([3]; Group II: peroral 10 mg/kg, days 3 to 10): 0.68 ± 0.34
% inhibition, mass percent ([3]; Group III: peroral 15 mg/kg): 100%
% inhibition, volume percent ([3]; Group III: peroral 15 mg/kg): 100%
Average volume of tumor ([3]; Group III: peroral 15 mg/kg): 0 cm^3
Average weight of tumor ([3]; Group III: peroral 15 mg/kg, days 3 to 10): 0
% inhibition, mass percent ([3]; Group IV: injection 7 mg/kg): 68.0%
% inhibition, volume percent ([3]; Group IV: injection 7 mg/kg): 76.7%
Average volume of tumor ([3]; Group IV: injection 7 mg/kg): 1.5 cm^3
Average weight of tumor ([3]; Group IV: injection 7 mg/kg in DMSO/physiological saline, days 3, 5, 7, 9): 1.025 ± 0.39
fate of the tumor ([3]; group 3: peroral 15 mg/kg): disappeared completely
% inhibition ([4]; 5 mg/kg peroral in olive oil): 68%
Average weight of tumor ([4]; 5 mg/kg peroral in olive oil): 1.04 g
% inhibition ([4]; 10 mg/kg peroral in olive oil): 81.5%
Average weight of tumor ([4]; 10 mg/kg peroral in olive oil): 0.71 g
concentration of cytosolic calcium [5]: increase
influence on the membrane potential of thymocytes [6]: hyperpolarization of the cell membranes
formation of ROS in neutrophils [7]: reduce or completely suppress
incubation time to wrinkling / invagination of the cell membrane [8]: 18 min
incubation time until cell fragments stain with trypan blue (apoptosis has begun) [8]: 28 min
incubation time until membrane components and contents detach from the cells [8]: 43 min
Living cells, % ([9]; Experiment 2, T4N2M0): 18.0 ± 1.71%
Dead cells, % ([9]; Experiment 2, T4N2M0, 40 million cells, 50 μl of preparation): 82.0 ± 1.78%
solubility in DMSO ([10]; dimethyl sulfoxide (DMSO)): dissolves
solubility in organic solvents ([10]; most / many organic solvents): insoluble
stability at room temperature ([10]; room temperature, even when exposed to oxygen): stable
solubility in water ([10]; water): insoluble
